Test results reported in US11389415B2, “Methods of regulating cannabinoid receptor activity-related disorders and diseases” (The United States of America as represented by the …, priority 2012, dated 2022).

Tested on: rat C6 glioma xenografts
Assay: Gene expression profiling (microarray, GO term and PAGE gene set analysis) in rat C6 glioma xenografts
Type: in vivo, mouse
Settings: for Z score, GO0000775 Chromosome pericentric region / Z score, GO0004527 Exonuclease activity / Z score, GO0005634 Nucleus / Z score, GO0006260 DNA replication / Z score, GO0006270 DNA replication initiation / Z score, GO0007049 Cell cycle / Z score, GO0007051 Spindle organization and biogenesis / Z score, GO0007067 Mitosis / Z score, GO0048015 Phosphoinositide mediated signaling / Z score, GO0051301 Cell division: MNF_Crtl
Procedure: Analysis of gene expression in rat C6 glioma xenografts. Total RNA was isolated from rat C6 glioma xenografts harvested from vehicle and MNF-treated mice (n=3 per group, cohort 1). This analysis was repeated in a second cohort of animals (n=3 per group, cohort 2). Total cellular RNA was extracted using an RNeasy plus mini kit (QIAGEN, Valencia, Calif.), and its quality was assessed using an Agilent BioAnalyzer using RNA 6000 Nano Chips (Agilent Technologies, Santa Clara, Calif.). Transcriptional profiling was determined using Illumina Sentrix BeadChips (Illumina, San Diego, Calif.). Total RNA was used to generate biotin-labeled cRNA with the Illumina TotalPrep RNA Amplification Kit. In short, 0.5 ug of total RNA was first converted into single-stranded cDNA with reverse transcriptase using an oligo-dT primer containing the T7 RNA polymerase promoter site and then copied to produce double-stranded cDNA molecules. The double-stranded cDNA was cleaned and concentrated with the supplied columns and used in an overnight in-vitro transcription reaction where single-stranded RNA (cRNA) was generated incorporating biotin-16-UTP. A total of 0.75 μg of biotin-labeled cRNA was hybridized at 58° C. for 16 hours to Illumina's Sentrix Rat Ref-12 Expression BeadChips. Each BeadChip has ˜22,000 well-annotated RefSeq transcripts with approximately 30-fold redundancy. The arrays were washed, blocked and the labeled cRNA was detected by staining with streptavidin-Cy3. Hybridized arrays were scanned using an Illumina BeadStation 500× Genetic Analysis Systems scanner and the image data extracted using Illumina's GenomeStudio software, version 1.6.1. For statistical analysis, the expression data were filtered to include only probes with a consistent signal on each chip and an Illumina detecton p value <0.02.
Correlation analysis, sample clustering analysis and principal component analysis was performed to identify/exclude any possible outliers. The resulting dataset was next analyzed with DIANE 6.0, a spreadsheet-based microarray analysis program using value statistics for Z-Score reliability below 0.05; and mean background-corrected signal intensity greater than zero.
Gene set enrichment analysis use gene expression values or gene expression change values for all of the genes in the microarray. Parametric analysis of gene set enrichment (PAGE) was used using the WEB-PAGE GSA tool for gene set analysis. Gene Sets include the MSIG database, Gene Ontology Database, GAD human disease and mouse phenotype gene sets were used to explore functional level changes. Gene-gene interaction was also analyzed using the INGENUITY® Pathway Analysis (IPA) system (INGENUITY® Systems).

[1] = Table 9, gene sets influenced by MNF treatment

With `COc1ccc(C[C@@H](C)NC[C@H](O)c2cc(O)cc(O)c2)c2ccccc12` [(R,R′)-MNF, (R,R′)-4′-methoxy-1-naphthylfenoterol] the “Z score, SHEPARD_GENES_COMMON_BW_CB_MO” value (MNF_Control, cohort 2) was −4.3867, the “Z score, STEMCELL_NEURAL_UP” value (MNF_Control, cohort 2) was −5.0064 and the “Z score, TARTE_MATURE_PC” value (MNF_Control, cohort 2) was 5.3293. The “Z score, TARTE_PLASMA_BLASTIC” value (MNF_Control, cohort 2) was −6.7905, the “Z score, VERNELL_PRB_CLSTR1” value (MNF_Control, cohort 2) was −6.5636 and the “Z score, YU_CMYC_UP” value (MNF_Control, cohort 2) was −7.3723. The “Z score, ZHAN_MM_CD138_PR_VS_REST” value (MNF_Control, cohort 2) was −9.0080, the “Z score, ADIP_DIFF_CLUSTERS” value (MNF_Control, combined cohorts) was −7.9684 and the “Z score, ATRBRCAPATHWAY” value (MNF_Control, combined cohorts) was −3.4407. The “Z score, BRCA_PROGNOSIS_NEG” value (MNF_Control, combined cohorts) was −6.5976, the “Z score, BRENTANI_REPAIR” value (MNF_Control, combined cohorts) was −4.2370 and the “Z score, CANCER_UNDIFFERENTIATED_META_UP” value (MNF_Control, combined cohorts) was −7.7981. The “Z score, CELL_CYCLE” value (MNF_Control, combined cohorts) was −8.6730, the “Z score, CELL_CYCLE_KEGG” value (MNF_Control, combined cohorts) was −7.8764 and the “Z score, CMV_IE86_UP” value (MNF_Control, combined cohorts) was −8.5032. For the same compound, the “Z score, CROONQUEST_IL6_STARVE_UP” value (MNF_Control, combined cohorts) was −10.7172, the “Z score, CROONQUIST_IL6_RAS_DN” value (MNF_Control, combined cohorts) was −9.7453 and the “Z score, DAC_FIBRO_DN” value (MNF_Control, combined cohorts) was −6.4794. For the same compound, the “Z score, DNA_REPLICATION_REACTOME” value (MNF_Control, combined cohorts) was −7.3185, the “Z score, DOX_RESIST_GASTRIC_UP” value (MNF_Control, combined cohorts) was −10.1840 and the “Z score, E2F1_DNA_UP” value (MNF_Control, combined cohorts) was −5.4288. The “Z score, GAY_YY1_DN” value (MNF_Control, combined cohorts) was −7.4972, the “Z score, GOLDRATH_HP” value (MNF_Control, combined cohorts) was −3.4750 and the “Z score, HDACI_COLON_BUT12 HRS_UP” value (MNF_Control, combined cohorts) was 5.8481. The “Z score, HDACI_COLON_BUT16HRS_UP” value (MNF_Control, combined cohorts) was 4.8024, the “Z score, HDACI_COLON_BUT24HRS_UP” value (MNF_Control, combined cohorts) was 4.4492 and the “Z score, HDACI_COLON_TSABUT_UP” value (MNF_Control, combined cohorts) was 5.2313. The “Z score, HIPPOCAMPUS_DEVELOPMENT_POSTNATAL” value (MNF_Control, combined cohorts) was 11.4209, the “Z score, HOFFMANN_BIVSBII_BI_TABLE2” value (MNF_Control, combined cohorts) was −8.5773 and the “Z score, HYPOPHYSECTOMY_RAT_DN” value (MNF_Control, combined cohorts) was 5.3951. For the same compound, the “Z score, IDX_TSA_UP_CLUSTER3” value (MNF_Control, combined cohorts) was −11.3388, the “Z score, IRITANI_ADPROX_LYMPH” value (MNF_Control, combined cohorts) was −5.7142 and the “Z score, KAMMINGA_EZH2_TARGETS” value (MNF_Control, combined cohorts) was −8.8163. The “Z score, KENNY_WNT_UP” value (MNF_Control, combined cohorts) was −6.9481, the “Z score, LAMB_CYCLIN_D3_GLOCUS” value (MNF_Control, combined cohorts) was −5.0503 and the “Z score, LEE_TCELLS2_UP” value (MNF_Control, combined cohorts) was −6.9464. For the same compound, the “Z score, LEE_TCELLS3_UP” value (MNF_Control, combined cohorts) was −10.3427, the “Z score, LI_FETAL_VS_WT_KIDNEY_DN” value (MNF_Control, combined cohorts) was −10.4609 and the “Z score, MANALO_HYPOXIA_DN” value (MNF_Control, combined cohorts) was −6.7155. For the same compound, the “Z score, MIDDLEAGE_DN” value (MNF_Control, combined cohorts) was −8.2457, the “Z score, MOREAUX_TACI_HI_IN_PPC_UP” value (MNF_Control, combined cohorts) was −4.9180 and the “Z score, MOREAUX_TACI_HI_VS_LOW_DN” value (MNF_Control, combined cohorts) was −5.1872. For the same compound, the “Z score, OLDAGE_DN” value (MNF_Control, combined cohorts) was −8.1220, the “Z score, P21_P53_ANY_DN” value (MNF_Control, combined cohorts) was −8.8530 and the “Z score, PEART_HISTONE_DN” value (MNF_Control, combined cohorts) was −5.7817. The “Z score, PODI_KO_UP” value (MNF_Control, combined cohorts) was −5.1416, the “Z score, PRMT5_KD_UP” value (MNF_Control, combined cohorts) was −8.9362 and the “Z score, REN_E2F1_TARGETS” value (MNF_Control, combined cohorts) was −4.4393. The “Z score, SASAKI_ATL_UP” value (MNF_Control, combined cohorts) was −7.2897, the “Z score, SASAKI_TCELL_LYMPHOMA_VS_CD4_UP” value (MNF_Control, combined cohorts) was −7.2897 and the “Z score, SERUM_FIBROBLAST_CELLCYCLE” value (MNF_Control, combined cohorts) was −12.2668. For the same compound, the “Z score, SHEPARD_BMYB_MORPHOLINO_DN” value (MNF_Control, combined cohorts) was −6.0639, the “Z score, SHEPARD_CRASH_AND_BURN_MUT_VS_WT_DN” value (MNF_Control, combined cohorts) was −5.5788 and the “Z score, SHEPARD_GENES_COMMON_BW_CB_MO” value (MNF_Control, combined cohorts) was −5.7440. For the same compound, the “Z score, STEMCELL_NEURAL_UP” value (MNF_Control, combined cohorts) was −7.2833, the “Z score, TARTE_MATURE_PC” value (MNF_Control, combined cohorts) was 6.8026 and the “Z score, TARTE_PLASMA_BLASTIC” value (MNF_Control, combined cohorts) was −8.3308. For the same compound, the “Z score, VERNELL_PRB_CLSTR1” value (MNF_Control, combined cohorts) was −7.4144, the “Z score, YU_CMYC_UP” value (MNF_Control, combined cohorts) was −8.4501 and the “Z score, ZHAN_MM_CD138_PR_VS_REST” value (MNF_Control, combined cohorts) was −10.7002. The “Z score, GO0000775 Chromosome pericentric region” value (Combined) was −6.3081, the “Z score, GO0004527 Exonuclease activity” value (Combined) was −5.8765 and the “Z score, GO0005634 Nucleus” value (Combined) was −9.4291. The “Z score, GO0006260 DNA replication” value (Combined) was −7.3157, the “Z score, GO0006270 DNA replication initiation” value (Combined) was −5.0248 and the “Z score, GO0007049 Cell cycle” value (Combined) was −9.3510. The “Z score, GO0007051 Spindle organization and biogenesis” value (Combined) was −6.7039, the “Z score, GO0007067 Mitosis” value (Combined) was −10.1574 and the “Z score, GO0048015 Phosphoinositide mediated signaling” value (Combined) was −5.2545. For the same compound, the “Z score, GO0051301 Cell division” value (Combined) was −10.1585, the “Z score, GO0000775 Chromosome pericentric region” value (Set 1) was −6.7644 and the “Z score, GO0004527 Exonuclease activity” value (Set 1) was −2.5829. For the same compound, the “Z score, GO0005634 Nucleus” value (Set 1) was −2.1680, the “Z score, GO0006260 DNA replication” value (Set 1) was −4.7695 and the “Z score, GO0006270 DNA replication initiation” value (Set 1) was −4.0283. The “Z score, GO0007049 Cell cycle” value (Set 1) was −5.1361, the “Z score, GO0007051 Spindle organization and biogenesis” value (Set 1) was −4.6166 and the “Z score, GO0007067 Mitosis” value (Set 1) was −7.5266. For the same compound, the “Z score, GO0048015 Phosphoinositide mediated signaling” value (Set 1) was −4.2781, the “Z score, GO0051301 Cell division” value (Set 1) was −6.9059 and the “Z score, GO0000775 Chromosome pericentric region” value (Set 2) was −3.5296. For the same compound, the “Z score, GO0004527 Exonuclease activity” value (Set 2) was −5.4622, the “Z score, GO0005634 Nucleus” value (Set 2) was −9.9454 and the “Z score, GO0006260 DNA replication” value (Set 2) was −6.0446. For the same compound, the “Z score, GO0006270 DNA replication initiation” value (Set 2) was −3.7775, the “Z score, GO0007049 Cell cycle” value (Set 2) was −8.0162 and the “Z score, GO0007051 Spindle organization and biogenesis” value (Set 2) was −5.2288. The “Z score, GO0007067 Mitosis” value (Set 2) was −7.6563, the “Z score, GO0048015 Phosphoinositide mediated signaling” value (Set 2) was −3.5441 and the “Z score, GO0051301 Cell division” value (Set 2) was −8.0673. For the same compound, the “Z score, CELL_CYCLE” value [1] was −7.4222, the “Z score, CROONQUIST_IL6_STARVE_UP” value [1] was −9.0059 and the “Z score, HDACI_COLON_BUT12 HRS_UP” value [1] was 3.6676. For the same compound, the “Z score, HIPPOCAMPUS_DEVELOPMENT_POSTNATAL” value [1] was 10.3511, the “Z score, HYPOPHYSECTOMY_RAT_DN” value [1] was 3.9294 and the “Z score, IDX_TSA_UP_CLUSTER3” value [1] was −10.1593. The “Z score, P21_P53_ANY_DN” value [1] was −7.4300, the “Z score, SERUM_FIBROBLAST_CELLCYCLE” value [1] was −10.6997 and the “Z score, TARTE_MATURE_PC” value [1] was 5.3293.
